≈ marks a conversion by molar mass, not a printed value.
How the values were obtained:
[1] = Saturated solubility of API in different solvents/media; assay type: physicochemical; details: for solubility at 24 h: organic solvent or mixture, thermodynamic from solid, room temperature
Procedure: The saturated solubility of the compound of the present invention in different solvents/media is shown in Table 1 (Test method: An appropriate excess amount of API was placed in an appropriate amount of solvent and shaken at room temperature for 24 hours, after which the sample solution was processed and analyzed). Among them, methanol and acetone are the optimal choices. Table 1 Saturated Solubility of the Compound of the Present Invention in Different Solvents/Media

[2] = Solubility of API in solvent combinations (visual dissolution); assay type: physicochemical; details: organic solvent combinations of Table 2, organic solvent or mixture, thermodynamic from solid; solvent combinations of Table 2 (acetone/methanol, acetone/ethanol, with water or dichloromethane); read-out: solubility of API in the solvent combinations listed in Table 2
Procedure: The solvent compositions capable of simultaneously dissolving the compound of the present invention and the carrier materials are shown in Table 2. The detection method for the solubility of API in different solvent combinations is as follows: Weigh 20 mg of the compound of the present invention and add it to 4 mL of different solvents or solvent combinations, respectively. Gently shake and observe the dissolution phenomenon. If complete dissolution occurs, add a small amount of additional API to the above solution, continue shaking, and observe the dissolution phenomenon. […] All carrier materials listed in Table 2 are soluble in the selected solvents or solvent combinations. Table 2 Solvent Compositions Capable of Simultaneously Dissolving the Compound of the Present Invention and the Carrier

[3] = Solubility testing of solid dispersions in media with different pH values (shaker, 24 hours); assay type: physicochemical; details: 0.1mol/L HCl
Procedure: (§1) Weigh an amount of powder (equivalent to 50 mg of API) from Examples 1-7 into a 10-mL vial, add 5 mL of media with different pH values, so that the theoretical concentration of API in the sample solution was about 10 mg/mL. Shake the vials in a shaker for 24 hours, and determine the solubility. During shaking, observe the dissolution phenomenon of the powder in the solution. If the solution becomes clear, add an additional amount of sample powder. Table 4 Solubility of Solid Dispersions Prepared Using Povidone in Different Media
Weigh an amount of powder (equivalent to 50 mg of API) from Examples 9-13 into a 10-mL vial, add a corresponding volume of media with different pH values, so that the theoretical concentration of API in the solution was about 10 mg/mL (the theoretical concentration of API in the sample solution of Example 13 was about 5 mg/mL). Shake the vials in a shaker for 24 hours, and sample at 4 h and 24 h to determine the solubility. During shaking, observe the dissolution phenomenon of the powder in the solution. If the solution becomes clear, add an additional amount of sample powder. Table 7 Solubility of Solid Dispersions Prepared Using HPMC in Different Media
as §1, with “Examples 14-16” for “Examples 1-7”, “add a corresponding volume” for “add 5 mL”, “and sample at 4 h and 24 h to” for “and”, “Table 9” for “Table 4”, “Using HPC” for “Using Povidone”
as §1, with “Examples 17-21” for “Examples 1-7”, “add a corresponding volume” for “add 5 mL”, “and sample at 4 h and 24 h to” for “and”, “Table 11” for “Table 4”, “Using Copovidone S630” for “Using Povidone”
Weigh an amount of powder (equivalent to 50 mg of API) from Examples 22-24 into a 10-mL vial, add a corresponding volume of media with different pH values, so that the theoretical concentration of API in the sample solution was about 10 mg/mL. Shake the vials in a shaker for 24 hours, and sample at 4 h and 24 h to determine solubility. Table 13 Solubility of Solid Dispersions Prepared Using HPMC AS in Different Media
Weigh an amount of powder(equivalent to 50 mg of API) from Examples 25-28 into a 10 mL vial, add a corresponding volume of media with different pH values, so that the theoretical concentration of API in the sample solution was about 10 mg/mL. Shake the vials in a shaker for 24 hours, and sample at 4 h and 24 h to determine the solubility. During shaking, observe the dissolution phenomenon of the powder in the solution. If the solution becomes clear, add an additional amount of sample powder. Table 15 Solubility of Solid Dispersions Prepared Using Polyethylene Glycol in Different Media […]

[4] = Dog PK: bioavailability of solid dispersions and API; assay type: in vivo; details: plasma, beagle dogs (male, fasted), oral, dose 5 mg/kg
Procedure: Based on the solubility data from the solid dispersion formulation examples above, the API (administration form: 10 mg/mL suspension, API suspended in 0.5% CMC-Na solution) and solid dispersions prepared using PVP K30 (drug-excipient ratios of 1:3 and 1:4, respectively) were selected for dog PK experiments. The solid dispersions were filled into hard capsules and orally administered to beagle dogs (male, fasted, 3 dogs per group) at a dose of 5 mg/kg. Whole blood samples of 0.3 mL were collected at 0 min, 10 min, 15 min, 30 min, 1 h, 2 h, 3 h, 4 h, 6 h, 8 h, 12 h, and 24 h after administration. The blood samples were placed in anticoagulant tubes, gently inverted several times, and then kept on wet ice in preparation for centrifugation. Within 30 minutes after collection, the samples were centrifuged at about 2000 × g (force) at 4°C for 10 minutes to obtain plasma. The resulting plasma samples were immediately divided into two aliquots (about 75 µL each) and transferred to cryovials. The samples were maintained on wet ice throughout the processing and stored in a freezer at -75 ± 15°C until analysis. The concentrations of the test substance in the plasma samples were analyzed using an LC-MS/MS method. Table 50 Summary of Dog PK Data for SDD Formulations

[5] = Dog PK experiment for tablets; assay type: in vivo; details: plasma, beagle dogs (male, fasted), oral, dose 5 mg/kg
Procedure: Example 59 and Example 60 were orally administered to beagle dogs (male, fasted, 3 dogs per group) at a dose of about 5 mg/kg. Example 65 was orally administered to beagle dogs (half male and half female, fasted, 8 dogs) at a dose of 50 mg/animal (about 5 mg/kg). Whole blood samples of 0.3 mL were collected at 0 min, 10 min, 15 min, 30 min, 1 h, 2 h, 3 h, 4 h, 6 h, 8 h, 12 h, and 24 h after administration. The blood samples were placed in anticoagulant tubes, gently inverted several times, and then kept on wet ice in preparation for centrifugation. Within 30 minutes after collection, the samples were centrifuged at about 2000 × g (force) at 4°C for 10 minutes to obtain plasma. The resulting plasma samples were immediately divided into two aliquots (about 75 µL each) and transferred to cryovials. The samples were maintained on wet ice throughout the processing and stored in a freezer at -75 ± 15°C until analysis. The concentrations of the test substance in the plasma samples were analyzed using an LC-MS/MS method. Table 51 Summary of Dog PK Data for Tablets

## C/C=C/c1cc(Nc2cc(N3CCN(C)CC3)nc(Oc3cc(F)c4[nH]c(C)cc4c3F)n2)n[nH]1 [API]
[1]; Acetone
  Solubility Description: Slightly soluble
  solubility at 24 h: 5990 µg/mL (≈ 12.5 mM)
[1]; Acetonitrile
  Solubility Description: Slightly soluble
  solubility at 24 h: 1220 µg/mL (≈ 2.54 mM)
[1]; Ethanol
  Solubility Description: Slightly soluble
  solubility at 24 h: 5170 µg/mL (≈ 10.8 mM)
[1]; Ethyl acetate
  Solubility Description: Slightly soluble
  solubility at 24 h: 4980 µg/mL (≈ 10.4 mM)
[1]; Isopropanol
  Solubility Description: Slightly soluble
  solubility at 24 h: 2340 µg/mL (≈ 4.87 mM)
[1]; Methanol
  Solubility Description: Slightly soluble
  solubility at 24 h: 8360 µg/mL (≈ 17.4 mM)
[1]; Propylene glycol
  Solubility Description: Slightly soluble
  solubility at 24 h: 2220 µg/mL (≈ 4.62 mM)
[2]
  Solubility: > 5000 µg/mL
[3]; 4h, API alone, sample concentration not given
  Solubility: 50 µg/mL (≈ 0.104 mM)
[3]; 24h, API alone, sample concentration not given
  Solubility: 50 µg/mL (≈ 0.104 mM)
[3]; simulated gastric fluid, thermodynamic from solid, 2h, API alone, sample concentration not given
  solubility at 2 h: 50 µg/mL (≈ 0.104 mM)
[3]; simulated gastric fluid, thermodynamic from solid, 4h, sample Supersaturated
  solubility at 4 h: 50 µg/mL (≈ 0.104 mM)
[3]; simulated gastric fluid, thermodynamic from solid, 24h, sample Supersaturated
  solubility at 24 h: 50 µg/mL (≈ 0.104 mM)
[4]
  AUC: 59 ng·h/mL
  Cmax: 22 ng/mL
[5]
  AUC: 59 ng·h/mL
  Cmax: 22 ng/mL

From patent EP4755375A1, “PHARMACEUTICAL COMPOSITION CONTAINING SUBSTITUTED INDOL-5-OL DERIVATIVE AND USE THEREOF” (Changshan Conjuchem Biopharmaceutical Research and …, priority 2023, dated 2025)
